As usually defined, the Cmax is the peak of the concentration-time curve.

One molecule from ChEMBL document CHEMBL3526061, “Glucuronidation of edaravone by human liver and kidney microsomes: biphasic kinetics and identification of UGT1A9 as the major UDP-glucuronosyltransferase isoform” (Drug Metab Dispos, 2012) can be followed below.

In data set [1] the target is T1, UDP-glucuronosyltransferase 1A4 (Homo sapiens, UniProt P22310).
T1 sequence (P22310 whole entry): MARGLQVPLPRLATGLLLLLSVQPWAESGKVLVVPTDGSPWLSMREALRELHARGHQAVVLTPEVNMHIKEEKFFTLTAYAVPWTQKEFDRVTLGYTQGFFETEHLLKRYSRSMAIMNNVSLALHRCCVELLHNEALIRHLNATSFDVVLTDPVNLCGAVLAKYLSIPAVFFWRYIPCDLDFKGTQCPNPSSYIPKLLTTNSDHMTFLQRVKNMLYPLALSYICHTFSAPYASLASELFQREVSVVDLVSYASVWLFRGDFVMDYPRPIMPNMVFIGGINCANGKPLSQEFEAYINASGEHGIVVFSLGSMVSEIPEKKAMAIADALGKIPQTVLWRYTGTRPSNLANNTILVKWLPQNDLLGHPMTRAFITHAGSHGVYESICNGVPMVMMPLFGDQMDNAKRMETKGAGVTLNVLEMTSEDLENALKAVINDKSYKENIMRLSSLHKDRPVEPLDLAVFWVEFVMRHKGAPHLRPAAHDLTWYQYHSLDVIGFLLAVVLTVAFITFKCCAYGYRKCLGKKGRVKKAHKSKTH
The data set can be described thus: Activity of human recombinant UGT1A4 expressed in insect cells assessed as enzyme mediated glucuronidation at 500 uM by LC-MS/MS method. The format is ADME.

Data set [2] concerns the target T2, UDP-glucuronosyltransferase 2B17 (Homo sapiens, UniProt O75795).
T2 sequence (O75795 whole entry): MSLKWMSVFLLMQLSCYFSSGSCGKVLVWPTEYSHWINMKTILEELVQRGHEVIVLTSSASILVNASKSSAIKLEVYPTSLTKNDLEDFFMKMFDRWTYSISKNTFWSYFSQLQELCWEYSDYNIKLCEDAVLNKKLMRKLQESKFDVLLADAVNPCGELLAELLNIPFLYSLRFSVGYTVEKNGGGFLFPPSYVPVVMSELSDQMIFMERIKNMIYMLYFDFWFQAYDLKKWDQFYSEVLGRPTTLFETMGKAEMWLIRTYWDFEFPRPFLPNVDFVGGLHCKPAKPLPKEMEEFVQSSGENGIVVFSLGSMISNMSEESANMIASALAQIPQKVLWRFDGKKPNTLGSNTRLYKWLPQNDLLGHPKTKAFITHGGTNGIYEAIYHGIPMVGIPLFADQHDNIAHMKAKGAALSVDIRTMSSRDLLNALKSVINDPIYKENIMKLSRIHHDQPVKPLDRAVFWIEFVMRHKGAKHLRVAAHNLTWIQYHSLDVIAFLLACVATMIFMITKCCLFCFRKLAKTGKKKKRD
The data set can be described thus: Activity of human recombinant UGT2B17 expressed in insect cells assessed as intrinsic clearance for enzyme mediated glucuronidation per mg protein by LC-MS/MS method. The format is ADME.

The nature of data set [3]: Drug metabolism in human kidney microsomes assessed as drug glucuronidation in presence of 100 to 1000 uM propofol by LC-MS/MS method. The format is ADME.
Data set [4] in a line: Drug metabolism in human kidney microsomes assessed as drug glucuronidation in presence of […] naloxone by LC-MS/MS method. The format is ADME.
Data set [5] in a line: Cmax in human at 0.5 mg/kg. Also noted: dose 0.5 mg/kg. The conditions noted are these: in vivo. The format is ADME, organism-based.
Data set [6] has as its target T3, UDP-glucuronosyltransferase 2B4 (Homo sapiens, UniProt P06133).
T3 sequence (P06133 whole entry): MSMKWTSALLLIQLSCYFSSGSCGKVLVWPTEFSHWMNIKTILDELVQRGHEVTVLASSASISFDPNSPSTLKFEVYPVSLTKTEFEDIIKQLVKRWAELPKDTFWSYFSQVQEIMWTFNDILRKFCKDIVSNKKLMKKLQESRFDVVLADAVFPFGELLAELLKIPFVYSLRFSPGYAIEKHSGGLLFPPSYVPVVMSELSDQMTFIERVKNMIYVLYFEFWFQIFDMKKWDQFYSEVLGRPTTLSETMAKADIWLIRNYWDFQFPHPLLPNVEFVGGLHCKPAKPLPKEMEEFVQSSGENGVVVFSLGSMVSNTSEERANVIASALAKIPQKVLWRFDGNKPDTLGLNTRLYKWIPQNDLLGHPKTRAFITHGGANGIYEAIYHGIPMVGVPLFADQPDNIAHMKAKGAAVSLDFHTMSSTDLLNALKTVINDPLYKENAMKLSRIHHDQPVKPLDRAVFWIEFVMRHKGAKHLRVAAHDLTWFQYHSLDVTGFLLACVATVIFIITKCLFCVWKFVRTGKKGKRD
The data set can be described thus: Activity of human recombinant UGT2B4 expressed in insect cells assessed as enzyme mediated glucuronidation at 500 uM by LC-MS/MS method. In kind it is ADME.

Data set [7] addresses T4, UDP-glucuronosyltransferase 2B15 (Homo sapiens, UniProt P54855).
T4 sequence (P54855 whole entry): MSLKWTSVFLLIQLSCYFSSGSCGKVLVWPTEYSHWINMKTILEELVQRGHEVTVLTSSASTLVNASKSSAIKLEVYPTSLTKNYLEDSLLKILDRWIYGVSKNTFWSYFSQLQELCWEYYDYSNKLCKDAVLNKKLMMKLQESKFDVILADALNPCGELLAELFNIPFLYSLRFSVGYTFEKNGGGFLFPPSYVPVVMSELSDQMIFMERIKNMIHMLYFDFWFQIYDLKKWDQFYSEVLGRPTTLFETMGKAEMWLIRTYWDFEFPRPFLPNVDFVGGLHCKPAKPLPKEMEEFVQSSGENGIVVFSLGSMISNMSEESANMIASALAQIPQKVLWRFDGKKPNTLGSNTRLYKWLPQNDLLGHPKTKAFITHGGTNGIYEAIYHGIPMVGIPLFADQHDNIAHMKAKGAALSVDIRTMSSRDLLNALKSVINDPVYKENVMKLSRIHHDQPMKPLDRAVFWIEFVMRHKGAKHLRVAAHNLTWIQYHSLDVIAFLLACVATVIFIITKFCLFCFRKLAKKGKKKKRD
In words: Activity of human recombinant UGT2B15 expressed in insect cells assessed as enzyme mediated glucuronidation at 500 uM by LC-MS/MS method. In kind it is ADME.

As for `CC1=NN(c2ccccc2)C(=O)C1` [EDARAVONE], the Drug metabolism entry was “metabolite_not_detected” in data set [1]; “metabolite_not_detected” in data set [3]; “metabolite_detected” in data set [4]; “metabolite_detected” in data set [6]; “metabolite_detected” in data set [7]. The CL in data set [2] is 3.3 µL/min/g. This molecule returned a Cmax in data set [5] of 6 µM.
